Experimental findings from US5646316A, “Bile acid inhibitors of metalloproteinase enzymes” (OsteoArthritis Sciences, Inc., priority 1995, dated 1997) are described below.

For test [1], the system named is chondrocytes. In words: Chondrocyte Cell Culture Matrix Breakdown Assay (35S release, rhIL-1α stimulated). Type of test: cell-based, calf. The settings on record: Bos taurus, Chondrocyte; for inhibition at 50 µM: read-out: percent inhibition, Cell Culture. On the procedure:
A cell culture assay was used to measure the ability of compounds to slow the degradation of the extracellular matrix by a metalloproteinase. This assay measured the amount ^35 S released from chondrocytes grown in a media with ^35 S labeled sodium sulfate. The cell culture assay was carried out as follows:
Two or three 1 to 3 week old calf joints were obtained from an abattoir. The proximal end of the shank was at about 4-5" long to facilitate immobilization in the holder. The joint was kept cool and transported on ice. The exterior of the intact joints was washed well with a suitable anti-microbial soap, rinsed clean with warm water, rinsed in betadine and then finally rinsed with 70% ethanol. Up to this point all steps were done in a manner to ensure that the joint was kept as clean as possible. All subsequent steps were performed in a sterile field (i.e., in a Edgeguard laminar flow tissue culture hood). The joint was immobilized and the synovial fluid was aspirated with a needle and syringe. The joint was then cut open to expose the articular cartilage using a #21 scalpel. Using locking hemostats, forceps and a #15 scalpel, the cartilage was excised in full thickness pieces. Care was taken not to cut too deep because bleeding would have occurred if the subchondral bone, was penetrated. The cartilage pieces were placed into a 50 mL centrifuge tube containing 25 mL of Delbecco's phosphate buffered saline (D-PBS) supplemented with 1% antibiotic solution (penicillin, streptomycin and fungizone; GIBCO/BRL). The slices from each joint were then placed into separate 50 mL centrifuge tubes. The D-PBS was decanted and replaced with 25 mL of fresh D-PBS supplemented with antibiotics and subsequently agitated gently.
The cartilage pieces were transferred to a fresh 50 mL centrifuge tube and rinsed once more with 25 mL of D-PBS minus antibiotics. An enzymatic digestion solution containing 1 mg/mL of hyaluronidase in serum-free 1:1 DMEM/Ham's F-12 (DMEM/F12) was prepared. This solution was filter sterilized with […] Milex--GV filter and kept on ice until ready to use. The cartilage pieces were digested with approximately 5 mL of hyaluronidase solution per joint for 2×15 minutes at 37° C. in the 50 mL centrifuge tube with gentle agitation at the 15 minute mark. This procedure removed residual hyaluronic acid from the surface of the chips. The enzymatic digestion solution was then aspirated and the cartilage pieces were rinsed with 25 mL of D-PBS.
A second enzymatic digestion solution containing 2.5 mg trypsin and 2 mg collagenase P per mL serum-free DMEM/F12 was prepared. This solution was also filter sterilized with a […] Millex--GV filter and kept on ice until ready to use. The cartilage pieces were digested with approximately 5 mL of trypsin: collagenase solution per joint for 2×15 minutes at 37° C. in the 50 mL centrifuge tube with gentle agitation at the 15 minute mark. This procedure removed the synovial fibroblasts and any adherent connective tissue from the surface of the chips. The enzymatic digestion solution was then carefully removed and saved and the cartilage pieces were rinsed with 25 mL of D-PBS.
A third enzymatic solution containing 2 mgs of collagenase P (BMB) per mL serum-free DMEM/F12 was prepared. This solution was filter sterilized with a […] Millex--GV filter and kept on ice until ready to use. The pre-digested cartilage pieces were finally digested with approximately 20 mL of enzymatic digestion solution per joint for 5-6 hours at 37° C. in a Bellco stirring digestion flask, at which point the cartilage was fully digested away.
The enzymes in the synovial fibroblast and chondrocyte digest were neutralized by addition of an equal volume of DMEM/F12 supplemented with 5% fetal bovine serum. Fibroblasts were plated in DMEM at a cellular density of 6.6×10^3 cells per cm^2. […]

For test [2], the system named is bovine cartilage explants. The test can be described thus: Bovine Cartilage Explant Assay (35S-GAG release, rhIL-1α stimulated; tissue culture). The settings on record: Bos taurus, read-out: percent inhibition of extracellular matrix damage, Tissue Culture. The test is classed as cell-based. The text has this: A tissue culture assay was used to measure the ability of the compounds of the present invention to slow the degradation of the extracellular matrix by metalloproteinases. This assay measured the amount of ^35 S-glycosaminoglycan (^35 S-GAG) released from labeled bovine cartilage explants.
Knee joints from a 1 to 3 week old calf were obtained immediately after sacrifice from the Abattoir and then transported on ice. The intact joints were washed well with tap water and soaked in 50% (v/v) Povidine iodine solution, obtained from Burre National, Inc., Baltimore, Md. All subsequent steps were performed in a laminar flow tissue culture hood using standard sterile technique. The joint was immobilized in a shank holder and the joint capsule was cut open to expose the articular cartilage. Cartilage explant plugs, approximately 15 mg wet weight, were removed from the flat articulating surfaces in the lower-most region of the knee joint using a sterile steel cork-borer and collected in a 250 mL roller bottle containing about 100 mL fresh Delbecco's minimum essential medium (DMEM), obtained from Gibco BRC, Life Technologies, Gaithersburg, Md., containing 4.5 g/1 (D)-glucose and (L)-glutamine, without sodium pyruvate. The fresh media also contained enough Hepes buffer and sodium bicarbonate such that the pH was about 7.4. The media was then further supplemented just before use with 100 units Penicillin, 100 μg Streptomycin, and 50 μg (L)-ascorbic acid per mL of medium.
Once collected, the explant plugs were washed four times with 50 mL fresh DMEM. The plugs were then placed in the incubator for a minimum of 1 hour to equilibrate, before proceeding to make disks from the articulating surface of each plug. A 1 mm thick disk was sliced from individual plugs from the end that was the articulating surface of the joint. The plug was held steady in the sterile template (4 mm diameter×1.5 mm deep) using sterile forceps. A scalpel blade was used to carefully slice off the disk. Only the superficial articulating surface responded well in culture.
Individual disks obtained were transferred to a tissue culture flask containing about 100 mL fresh media. The flask containing the disks was placed in an incubator at 37° C. (with 5% CO2, 95% air) and allowed to equilibrate overnight and at least one additional day before labeling. When ready to label, the old media was replaced with 50 mL fresh media containing about 500 μCi ^35 S-Sodium Sulfate. The plugs were labeled in bulk for about 48 hours. The next morning, the "hot" media was removed and replaced with fresh "cold" media. The disks were again allowed to equilibrate overnight before being used for actual experiments.
The media in which the disks were stored was changed immediately prior to performing the assay. The disks were then returned to the incubator until the test media and the two control media had been prepared. The test media consisted of a bile acid or bile acid derivative (50 μM) being tested for its ability to inhibit extracellular matrix degradation and concomitant recombinant human Interleukin rhIL-1α (5 ng/mL) in fresh DMEM solution. The control media were identical to the test media, except that the first control media lacked rhIL-1α and the second control media lacked an inhibitor, i.e. a bile acid or bile acid derivative. 250 μL of each of the test and control media were transferred to separate 96-well TC plates. Flamed forceps were used to transfer a disk from the incubator to each 96-well TC plates that had been filled with either the test media or one of the two control media.
The TC plates were then placed in the incubator and cultured for 3-4 days (initial incubation with rhIL-1α alpha takes at least 3 days to stimulate endogenous metalloproteinases). A 50 μL aliquot of media from each TC plate was saved and counted. The rest of the media was removed with a suction device.
The cartilage disks from each TC plate were also saved for counting. […]

[3] abbreviates: at 50 μM, rhIL-1α 5 ng/mL, 3-4 days.
Where [4] appears, read: at 50 μM, rhIL-1α 1 ng/ml, 22-24 hours.

SMILES strings stand for the structures. Like-named read-outs stand apart in the source and are kept apart here.

A word on the IC50: it is the midpoint of a concentration-inhibition curve. One may read the inhibition as the change of the read-out against control, counted positive when it falls. On to `C[C@H](CCC(=O)NO)[C@H]1CC[C@H]2[C@@H]3CC[C@@H]4C[C@H](O)CC[C@]4(C)[C@H]3CC[C@]12C` [Compound 13, Lithocholylhydroxamic Acid], for which the 50% inhibitory concentration (IC50) in test [1] (rhIL-1α 1 ng/ml, 22-24 hours) came to 20 µM. For the same compound, the inhibition at 50 µM in test [2] (setting [3]) amounted to 44%.
For the compound `C[C@H](CCC(=O)O)[C@H]1CC[C@H]2[C@@H]3CC[C@@H]4C[C@H](O)CC[C@]4(C)[C@H]3CC[C@]12C` [Compound 1, Lithocholic acid, reference compound], the inhibition at 50 µM in test [1] (setting [4]) is 95%; in test [2] (setting [3]), 68%.
Take `C[C@H](CCC(=O)NCCC[N+](C)(C)CCCS(=O)(=O)[O-])[C@H]1CC[C@H]2[C@@H]3[C@H](O)C[C@@H]4C[C@H](O)CC[C@]4(C)[C@H]3C[C@H](O)[C@]12C` [Compound 8, 3-[(3-cholamidopropyl)dimethylammonio)-1-propanesulfonate, reference compound]: the inhibition at 50 µM in test [1] is 2%; in test [2] it was -120%.
With `CCOC(=O)[C@H](CS)NC(=O)[C@H](Cc1ccccc1)NC(=O)CC[C@@H](C)[C@H]1CC[C@H]2[C@@H]3CC[C@@H]4C[C@H](O)CC[C@]4(C)[C@H]3CC[C@]12C` [Compound 19, Lithocholyl-(L)-Phenylalanyl-(L)-Cysteine Ethyl Ester], the inhibition at 50 µM in test [1] (setting [4]) is 4%; in test [2] (setting [3]), 32%.
For `C[C@H](CCC(=O)N[C@@H](Cc1ccccc1)C(=O)NO)[C@H]1CC[C@H]2[C@@H]3CC[C@@H]4C[C@H](O)CC[C@]4(C)[C@H]3CC[C@]12C` [Compound 15, Lithocholyl-(L)-Phenylalanine Hydroxamic Acid], in that order: 38% and 54%.
`CC(C)C[C@H](NC(=O)CC[C@@H](C)[C@H]1CC[C@H]2[C@@H]3CC[C@@H]4C[C@H](O)CC[C@]4(C)[C@H]3CC[C@]12C)C(=O)NO` [Compound 9, Lithocholyl-(L)-Leucine Hydroxamic Acid]: the inhibition at 50 µM in test [1] (setting [4]) was 43%; in test [2] (setting [3]) it was 84%.
In test [1] (rhIL-1α 1 ng/ml, 22-24 hours), `CC(C)C[C@H](NC(=O)CC[C@@H](C)[C@H]1CC[C@H]2[C@@H]3[C@H](O)C[C@@H]4C[C@H](O)CC[C@]4(C)[C@H]3CC[C@]12C)C(=O)NO` [Compound 10, Chenodeoxycholyl-(L)-Leucine Hydroxamic Acid] showed an IC50 of 80 µM. Also, the inhibition at 50 µM in test [2] (setting [3]) was found to be 85%.
On to `C[C@H](CCC(=O)N[C@@H](Cc1ccccc1)C(=O)NC1CCSC1=O)[C@H]1CC[C@H]2[C@@H]3CC[C@@H]4C[C@H](O)CC[C@]4(C)[C@H]3CC[C@]12C` (some centres unmarked) [Compound 20, Lithocholyl-Phenylalanylhomocysteine Thiolactone], for which the inhibition at 50 µM in test [1] (setting [4]) was 16%; in test [2] (setting [3]) it was -13%.
Turning to `C[C@H](CCC(=O)N[C@@H](Cc1ccccc1)C(=O)NO)[C@H]1CC[C@H]2[C@@H]3[C@H](O)C[C@@H]4C[C@H](O)CC[C@]4(C)[C@H]3CC[C@]12C` [Compound 16, Chenodeoxycholyl-(L)-Phenylalanine Hydroxamic Acid], the inhibition at 50 µM in test [1] (setting [4]) came out at 85%; in test [2] (setting [3]) it was 94%.
As for `C[C@H](CCC(=O)NOCc1ccccc1)[C@H]1CC[C@H]2[C@@H]3[C@H](O)C[C@@H]4C[C@H](O)CC[C@]4(C)[C@H]3CC[C@]12C` [Compound 12, Chenodeoxycholyl-O-Benzylhyroxamate], the inhibition at 50 µM in test [1] (setting [4]) is 64%; in test [2] (setting [3]), 6%.
